In general, IC50 refers to the point on the concentration scale where inhibition reaches its midpoint. High values mean weaker potency, low ones greater potency.

Assay [1] addresses DPB1*02:01. Briefly: Peptide binding to HLA-DP allele, competition assay. Further details: species or system human. Put shortly: (§1)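 Screening used competition binding assays on 26 HLA alleles with 30 candidate peptides.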
Assay [2] has as its target DPB1*05:01. The description is as above. Also on record: species or system human. Put shortly:
as §1

Assay [3] addresses DPB1*04:02. Described as above. Further details: species or system human. Put shortly:
as §1

For assay [4], the target named is DPB1*14:01. The assay is described as above. Also on record: species or system human. Summed up: as §1
Assay [5] concerns the target T1, DPB1*04:01 (Homo sapiens, UniProt P04440).
T1 sequence (P04440 30-258): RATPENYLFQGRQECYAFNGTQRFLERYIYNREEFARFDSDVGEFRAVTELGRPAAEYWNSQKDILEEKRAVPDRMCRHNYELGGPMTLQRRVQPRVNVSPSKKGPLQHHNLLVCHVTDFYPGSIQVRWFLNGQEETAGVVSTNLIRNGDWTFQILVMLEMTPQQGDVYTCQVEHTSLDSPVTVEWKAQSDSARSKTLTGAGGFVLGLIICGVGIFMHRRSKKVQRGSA
T1 sequence (P20036 29-260 partner): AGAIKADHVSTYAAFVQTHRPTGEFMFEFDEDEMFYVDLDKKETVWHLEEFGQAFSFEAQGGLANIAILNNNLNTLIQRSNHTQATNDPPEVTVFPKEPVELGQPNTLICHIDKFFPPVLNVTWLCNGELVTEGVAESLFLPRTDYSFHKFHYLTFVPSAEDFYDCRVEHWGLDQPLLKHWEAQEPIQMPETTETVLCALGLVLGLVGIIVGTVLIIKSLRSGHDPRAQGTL
The description is as above. The source says: (§2) Peptide binding to MHC-II requires anchor residues in certain positions and thus can be predicted using computer algorithms. Affinity can be measured experimentally using a competition assay (1). Both are excellent screening tools. However, affinity must be measured separately for each MHC-II allele. Humans express molecules encoded in four different MHC-II loci, denominated HLA-DRB1, DRB3/4/5, DP and DQ. Allelic variation is large, and most people are heterozygous at each locus, thus expressing up to 8 relevant MHC-II alleles. CD4 T cell responses strictly require that the antigenic peptide binds to the relevant MHC-II.
(§3) To identify peptides that could potentially be used in human patients, 30 peptides were screened for binding to 26 HLA alleles by competition assay.

Assay [6] addresses DRB1*09:01 (Homo sapiens, UniProt P01903+P01911, A100R/A103E/D57H/D86V/F55Y/F60I/F76Y/I96F/K127E/L162R/M171V/P40D/Q125H/Q99R/R33Q/R42F/S133A/S66N/T210M/V115G/W38K/Y107V/Y59G/Y89S). Briefly: Peptide binding to HLA-DR allele, competition assay.
Description: as §2, §3

Assay [7] has as its target DRB1*04:05 (Homo sapiens, UniProt P01903+P01911, A100R/A169T/D86S/F76Y/I96L/K127E/L162R/M171V/N62H/P40V/Q125Y/R42H/S133A/S149N/S66Y/V115G/V209L/W38E). The description is as above.
Description: as §2, §3

Assay [8] deals with DPB1*03:01. Description: Peptide binding to HLA-DP allele, competition assay. Further details: species or system human. Put shortly: as §1
For assay [9], the target named is DQB1*06:02. Description: Peptide binding to HLA-DQ allele, competition assay. Further details: species or system human. Summed up: as §1
Assay [10] concerns the target DRB1*15:01 (Homo sapiens, UniProt P01903+P01911). Briefly: Peptide binding to HLA-DR allele, competition assay.
Description: as §2, §3

In assay [11] the target is DRB5*01:01 (Homo sapiens, UniProt P01903+Q30154). Described as above.
Description: as §2, §3

With `CC[C@H](C)[C@H](NC(=O)[C@H](C)NC(=O)[C@H](CCCCN)NC(=O)[C@H](Cc1ccccc1)NC(=O)[C@@H](NC(=O)[C@H](CCC(=O)O)NC(=O)[C@@H](N)CCC(N)=O)C(C)C)C(=O)N[C@@H](CCC(N)=O)C(=O)N[C@@H](CO)C(=O)N[C@@H](CC(C)C)C(=O)N[C@@H](CCCCN)C(=O)N[C@H](C(=O)N[C@H](C(=O)N[C@@H](CCC(=O)O)C(=O)N[C@H](C(=O)O)C(C)C)[C@@H](C)O)[C@@H](C)O` [Peptide 3563.0024], the half-inhibitory concentration (IC50) in [1] came out at 200 nM; in assay [2], 369 nM; in [3], 93 nM; in [4], 1780 nM; in assay [5], 16 nM; in [6] it was 46 nM. For the same molecule, the concentration for half-maximal inhibition (IC50) in assay [7] turned out to be 18 nM.
In the case of `CC[C@H](C)[C@H](N)C(=O)N[C@@H](CCCCN)C(=O)N[C@@H](Cc1c[nH]cn1)C(=O)N[C@H](C(=O)N[C@@H](Cc1ccc(O)cc1)C(=O)N[C@@H](C)C(=O)N[C@H](C(=O)N[C@@H](CO)C(=O)N[C@@H](CO)C(=O)N[C@@H](C)C(=O)N[C@@H](C)C(=O)N[C@@H](CC(C)C)C(=O)N[C@@H](CO)C(=O)N[C@@H](C)C(=O)N[C@@H](CO)C(=O)O)[C@@H](C)CC)[C@@H](C)CC` [Peptide 3563.0009], the IC50 in assay [4] was found to be 132 nM; in assay [8], 90 nM; in assay [9], 66 nM; in assay [10], 1.1 nM; in assay [11], 18 nM.

(Values after patent US12448433B2, “Human ApoB100 epitopes, methods and uses for modulating inflammatory responses, and treating adverse cardiovascular events, disease and atherosclerosis” (LA JOLLA INSTITUTE FOR ALLERGY AND IMMUNOLOGY, priority 2015, dated 2025).)
